According to patent US20030028927A1 (priority 2001, published 2003):

Columns and labels:
Format in all cases: in vivo, Arabidopsis thaliana
[1] = test system: Arabidopsis seedlings (ecotypes Col, Ler, Shadara); experiment: Morphological phenotypes of Arabidopsis ecotype seedlings grown on Hsp90 inhibitor
Protocol: In most cases phenotypes were distinct and were not accompanied by a general failure to thrive. […] Next, several Arabidopsis ecotypes were tested from diverse geographic locations and environments, including Cape Verde Island ([…], Tsu-1, Mr-0, and Ts-1. […] Particular phenotypes were not restricted to particular ecotypes, but the frequencies at which they appeared varied reproducibly between them. […] 30% of seedlings had these phenotypes. […] also frequently produced distorted rosettes with juxtaposed cotyledons. Dwarfed plants with cotyledons that accumulated purple pigment were most common in Col. Curled hypocotyls were most frequent in Ler. Ecotypes were crossed several times in independent experiments to produce F1 seeds. […] Plates were unwrapped after 48 hrs at 22° C., were incubated in continuous light at 150 μmol m^-2 sec^-1 (unless otherwise indicated), and were analyzed after eight and ten days of growth.

[2] = test system: Cvi/Ler RI line seedlings; experiment: RI line specific phenotypes on GdA
Description: To test this, recombinant inbred lines (RI lines) were examined, which originated from crosses between two ecotypes followed by single-seed self-propagation for eight generations. Each line should be homozygous at almost all loci, with different lines representing various mosaics of the parental genomes (Alonso-Blanco et al., 1998). If a decrease in Hsp90 function uncovers novel phenotypes due to natural variation, GdA-induced phenotypes should vary between RI lines but tend to be shared within them. Here, work with 50 RI lines derived from a cross between Cvi and Ler (Cvi/Ler, CS22477 base set, ABRC) is presented. These lines are characterized by high rates of recombination and low segregation distortion (Alonso-Blanco et al., 1998). Col/Ler RI lines behaved similarly, although phenotypic variation was not quite so dramatic.
(§1) Ecotypes were crossed several times in independent experiments to produce F1 seeds. […] Plates were unwrapped after 48 hrs at 22° C., were incubated in continuous light at ˜150 μmol m^−2 sec^−1 (unless otherwise indicated), and were analyzed after eight and ten days of growth.
To minimize variation and provide more objective comparisons, two RI lines were plated together on each square plate. All sets were cold treated for 48 hrs. Foil-wrapped plates incubated at 22° C. were treated as described above. Since development was more rapid at 27° C., these plates were unwrapped after 24 hrs instead of 48 hrs. Phenotypes were scored at eight and ten days.

[3] = test system: F1 seedlings (Col x Ler and Ler x Cvi); experiment: Phenotypes of F1 progeny of accession crosses with GdA; conditions: Col x Ler and Ler x Cvi F1, in the presence of GdA
Description: To investigate the interplay of genetic variation, stochastic processes, and their dependence on the Hsp90 buffering system, Applicants tested crosses of different, nearly homozygous accessions (Col x Ler and Ler x Cvi) that are believed to have been recentlyevolving independently. If stochastic events contribute to phenotypes predisposed by genotype, then mixing genomes might disrupt developmental stability in F1 progeny. Further, if Hsp90 buffers developmental stability against such events, reducing Hsp90 function in nearly identical F1 progeny should increase phenotypic variance. […] Phenotypes were stronger and more frequent in seedlings with a maternal contribution from Ler (˜20 to 25% affected seedlings) than with maternal contributions from Col or Cvi (˜10 to 15%).
as §1

[4] = RI line 082, S-shaped rosette with vertically oriented leaf blade of cotyledons
[5] = RI line 104, purple pigmentation of cotyledons and true leaves
[6] = RI line 113, curled hypocotyl with root partially extended into air
[7] = RI line 119, deformed, radially-symmetric and missing true leaves
[8] = RI line 120, radially-symmetric and missing true leaves
[9] = RI line 122, distorted rosette, juxtaposed or fused cotyledons

SMILES: COC1=C2C[C@@H](C)C[C@H](OC)[C@H](O)[C@@H](C)/C=C(\C)[C@H](OC(N)=O)[C@@H](OC)/C=C\C=C(/C)C(=O)NC(=CC1=O)C2=O [GdA, geldanamycin]
- seedlings showing strong morphological abnormalities ([1]; 1.0 μM GdA, Col and Ler): 5-8%
- phenotype frequency in selfed progeny ([1]; progeny of selfed Shadara plants with subtle true leaf abnormalities, with GdA): 75%
- Frequency with 1 μM GdA at 22° C. [2, 4]: 32%
- Frequency with 1 μM GdA at 22° C. (count) [2, 4]: 64/201
- Frequency with 1 μM GdA at 22° C. [2, 5]: 34%
- Frequency with 1 μM GdA at 22° C. (count) [2, 5]: 29/84
- Frequency with 1 μM GdA at 22° C. ([2]; RI line 104, root morphology): 52%
- Frequency with 1 μM GdA at 22° C. (count) ([2]; RI line 104, root morphology): 44/84
- Frequency with 1 μM GdA at 22° C. [2, 6]: 32%
- Frequency with 1 μM GdA at 22° C. (count) [2, 6]: 9/28
- Frequency with 1 μM GdA at 22° C. [2, 7]: 68%
- Frequency with 1 μM GdA at 22° C. (count) [2, 7]: 19/28
- Frequency with 1 μM GdA at 22° C. [2, 8]: 64%
- Frequency with 1 μM GdA at 22° C. (count) [2, 8]: 18/29
- Frequency with 1 μM GdA at 22° C. [2, 9]: 28%
- Frequency with 1 μM GdA at 22° C. (count) [2, 9]: 44/158
- Frequency with 1 μM GdA at 22° C. ([2]; RI line 134, bent hypocotyls): 88%
- Frequency with 1 μM GdA at 22° C. (count) ([2]; RI line 134, bent hypocotyls): 49/56
- Frequency with 1 μM GdA at 22° C. ([2]; RI line 159, root morphology): 50%
- Frequency with 1 μM GdA at 22° C. (count) ([2]; RI line 159, root morphology): 53/105
- decrease of growth rate ([2]; relative to plants grown without GdA at 22° C.): 0.5 to 1 days
- frequency of abnormal phenotypes in F1 progeny [3]: up to 25%
